Experimental data reported in article PMC7027746 (Clinical Pharmacology in Drug Development, 2019).
Like-named read-outs stand apart in the source and are kept apart here.

Key:
[1] = single 180‐mg oral dose of [14C]‐brigatinib, healthy volunteers; cited from earlier work
[2] = system: ALK; details: in vitro; cited from earlier work
[3] = type: in vivo, human; details: for CL/F, geometric mean (% CV) / CL/F, mean (SD) / AUC / Cmax: healthy subjects
[4] = type: in vivo, human; details: for CL/F, geometric mean (% CV) / CL/F, mean (SD) / AUC / Cmax: healthy subjects; remark: listed apart in the source
[5] = Rifampin DDI arm: single-dose brigatinib plasma PK with and without rifampin; type: in vivo, human; details: for half-life / Cmax / AUC: human, plasma
[6] = system: healthy subjects; assay: Safety and tolerability; type: in vivo, human
[7] = system: crizotinib‐naive patients with ALK‐positive NSCLC; details: cited from earlier work
[8] = cited from earlier work
[9] = healthy volunteers, cited from earlier work
[10] = system: CYP1A2; details: human liver microsomes, clinically relevant concentrations; ref data on file; cited from earlier work
[11] = system: CYP2B6; details: human liver microsomes, clinically relevant concentrations; ref data on file; cited from earlier work
[12] = system: CYP2C8; details: human liver microsomes, clinically relevant concentrations; ref data on file; cited from earlier work
[13] = system: CYP2C9; details: human liver microsomes, clinically relevant concentrations; ref data on file; cited from earlier work
[14] = system: CYP2C19; details: human liver microsomes, clinically relevant concentrations; ref data on file; cited from earlier work
[15] = system: CYP2D6; details: human liver microsomes, clinically relevant concentrations; ref data on file; cited from earlier work
[16] = system: CYP3A4/5; details: human liver microsomes, clinically relevant concentrations; ref data on file; cited from earlier work
[17] = system: CYP3A expression; details: human hepatocytes, clinically relevant concentrations, via activation of the pregnane X receptor; cited from earlier work
[18] = brigatinib 90 mg + gemfibrozil vs brigatinib alone
[19] = brigatinib + gemfibrozil compared with brigatinib alone
[20] = single 90 mg oral brigatinib + gemfibrozil 600 mg BID (test), n = 19
[21] = single 90 mg oral brigatinib alone (reference), n = 19
[22] = human, plasma, po, 90 mg, AUC0‐120, geometric mean (% CV), single 90 mg oral brigatinib alone (reference), n = 20
[23] = human, plasma, po, 90 mg, AUC0‐120, mean (SD), single 90 mg oral brigatinib alone (reference), n = 20
[24] = human, plasma, po, 90 mg, geometric mean (% CV), single 90 mg oral brigatinib alone (reference), n = 20
[25] = brigatinib 90 mg + itraconazole vs brigatinib alone
[26] = brigatinib + itraconazole compared with brigatinib alone
[27] = single 90 mg oral brigatinib + itraconazole 200 mg BID (test), n = 11
[28] = single 90 mg oral brigatinib alone (reference), n = 20
[29] = brigatinib 180 mg + rifampin vs brigatinib alone
[30] = brigatinib + rifampin compared with brigatinib alone
[31] = healthy subjects, single 180 mg oral brigatinib + rifampin 600 mg QD (test), n = 19
[32] = healthy subjects, single 180 mg oral brigatinib alone (reference), n = 20
[33] = brigatinib coadministered with gemfibrozil

COc1cc(N2CCC(N3CCNCC3)CC2)ccc1Nc1ncc(Cl)c(Nc2ccccc2P(C)(C)=O)n1 [N‐desmethyl brigatinib]
share of circulating radioactive components [1]: 3.5% | ALK inhibition potency, fold lower than brigatinib [2]: approximately 3 fold

COc1cc(N2CCC(N3CCN(C)CC3)CC2)ccc1Nc1ncc(Cl)c(Nc2ccccc2P(C)(C)=O)n1 [brigatinib, Brigatinib]
AUC0‐120, geometric LS mean ratio (90%CI) (test vs reference) [3, 18]: 0.85 (0.80‐0.91) | CL/F, geometric LS mean ratio (90%CI) (test vs reference) [3, 18]: 1.13 (1.06‐1.20) | reduction in peak concentrations [3, 19]: approximately 40% | reduction of geometric mean AUC0‐inf [3, 19]: 12% | CL/F, geometric mean (% CV) [3, 20]: 15.7 (25.7) L/h | CL/F, mean (SD) [3, 20]: 16.2 (4.3) L/h | CL/F, geometric mean (% CV) [3, 21]: 13.1 (33.9) L/h | CL/F, mean (SD) [3, 21]: 13.8 (4.6) L/h | half-life ([3]; human, plasma, oral, 90 mg): 1590 min | Tmax ([3]; human, plasma, po, 90 mg): 2 h | half-life ([3]; human, plasma, po, 90 mg): 1600 min | AUC [3, 22]: 6490 ng·h/mL | AUC [3, 23]: 6840 ng·h/mL | AUC ([3]; human, plasma, po, 90 mg, AUC0‐inf, geometric mean (% CV), single 90 mg oral brigatinib alone (reference), n = 19): 6880 ng·h/mL | AUC ([3]; human, plasma, po, 90 mg, AUC0‐inf, mean (SD), single 90 mg oral brigatinib alone (reference), n = 19): 7230 ng·h/mL | Cmax [3, 24]: 348 ng/mL | AUC ([3]; human, plasma, po, AUC0‐120, geometric mean (% CV), single 90 mg oral brigatinib + gemfibrozil 600 mg BID (test), n = 19): 5340 ng·h/mL | AUC ([3]; human, plasma, po, AUC0‐120, mean (SD), single 90 mg oral brigatinib + gemfibrozil 600 mg BID (test), n = 19): 5520 ng·h/mL | AUC ([3]; human, plasma, po, AUC0‐inf, geometric mean (% CV), single 90 mg oral brigatinib + gemfibrozil 600 mg BID (test), n = 19): 5740 ng·h/mL | AUC ([3]; human, plasma, po, AUC0‐inf, mean (SD), single 90 mg oral brigatinib + gemfibrozil 600 mg BID (test), n = 19): 5910 ng·h/mL | Cmax ([3]; human, plasma, po, geometric mean (% CV), single 90 mg oral brigatinib + gemfibrozil 600 mg BID (test), n = 19): 199 ng/mL | Cmax ([3]; human, plasma, po, mean (SD), single 90 mg oral brigatinib + gemfibrozil 600 mg BID (test), n = 19): 210 ng/mL | CL/F, geometric LS mean ratio (90%CI) (test vs reference) [4, 25]: 0.50 (0.45‐0.54) | Cmax, geometric LS mean ratio (90%CI) (test vs reference) [4, 25]: 1.21 (1.13‐1.30) | increase of geometric mean AUC0‐120 [4, 26]: 82% | increase of geometric mean AUC0‐inf [4, 26]: 101% | increase of geometric mean Cmax [4, 26]: 21% | prolongation in the geometric mean t½ [4, 26]: ~50% | increase of systemic exposure ([4]; by itraconazole): 2 fold | CL/F, geometric mean (% CV) [4, 27]: 6.67 (35.6) L/h | CL/F, mean (SD) [4, 27]: 7.05 (2.54) L/h | CL/F, geometric mean (% CV) [4, 28]: 14.0 (28.7) L/h | CL/F, mean (SD) [4, 28]: 14.46 (3.84) L/h | Tmax ([4]; human, plasma, po, 90 mg): 2.8 h | half-life ([4]; human, plasma, po, 90 mg): 1830 min | AUC [4, 22]: 6140 ng·h/mL | AUC [4, 23]: 6380 ng·h/mL | AUC ([4]; human, plasma, po, 90 mg, AUC0‐inf, geometric mean (% CV), single 90 mg oral brigatinib alone (reference), n = 20): 6450 ng·h/mL | AUC ([4]; human, plasma, po, 90 mg, AUC0‐inf, mean (SD), single 90 mg oral brigatinib alone (reference), n = 20): 6710 ng·h/mL | Cmax [4, 24]: 331 ng/mL | Cmax ([4]; human, plasma, po, geometric mean (% CV), single 90 mg oral brigatinib + itraconazole 200 mg BID (test), n = 20): 401 ng/mL | Cmax ([4]; human, plasma, po, mean (SD), single 90 mg oral brigatinib + itraconazole 200 mg BID (test), n = 20): 429 ng/mL | AUC0‐120, geometric LS mean ratio (90%CI) (test vs reference) [5, 29]: 0.20 (0.19‐0.22) | CL/F, geometric LS mean ratio (90%CI) (test vs reference) [5, 29]: 5.11 (4.73‐5.51) | decrease of geometric mean Cmax [5, 30]: 60% | reduction of geometric mean AUC0‐inf [5, 30]: 80% | CL/F, geometric mean (% CV) [5, 31]: 59.2 (25.8) L/h | CL/F, mean (SD) [5, 31]: 61.0 (15.4) L/h | tmax, median (range) [5, 31]: 2.0 (1.0‐4.0) h | CL/F, geometric mean (% CV) [5, 32]: 11.5 (34.4) L/h | CL/F, mean (SD) [5, 32]: 12.2 (4.3) L/h | half-life ([5]; oral, 180 mg, geometric mean t½, brigatinib 180 mg in the presence of rifampin): 1400 min | Cmax ([5]; po, 180 mg, geometric mean (% CV), healthy subjects, single 180 mg oral brigatinib alone (reference), n = 20): 826 ng/mL | AUC ([5]; po, AUC0‐120, geometric mean (% CV), healthy subjects, single 180 mg oral brigatinib + rifampin 600 mg QD (test), n = 19): 3020 ng·h/mL | AUC ([5]; po, AUC0‐120, mean (SD), healthy subjects, single 180 mg oral brigatinib + rifampin 600 mg QD (test), n = 19): 3110 ng·h/mL | AUC ([5]; po, AUC0‐inf, geometric mean (% CV), healthy subjects, single 180 mg oral brigatinib + rifampin 600 mg QD (test), n = 19): 3040 ng·h/mL | AUC ([5]; po, AUC0‐inf, mean (SD), healthy subjects, single 180 mg oral brigatinib + rifampin 600 mg QD (test), n = 19): 3140 ng·h/mL | Cmax ([5]; po, geometric mean (% CV), healthy subjects, single 180 mg oral brigatinib + rifampin 600 mg QD (test), n = 19): 334 ng/mL | Cmax ([5]; po, mean (SD), healthy subjects, single 180 mg oral brigatinib + rifampin 600 mg QD (test), n = 19): 347 ng/mL | half-life ([5]; po, t½, mean (SD), healthy subjects, single 180 mg oral brigatinib + rifampin 600 mg QD (test), n = 19): 1420 min | increase in CL/F ([5]; in the presence of rifampin): approximately 5 fold | Any serious TEAE ([6]; Gemfibrozil DDI arm (n = 20)): 0 n (%) | Any severe TEAE ([6]; Gemfibrozil DDI arm (n = 20)): 0 n (%) | On‐study deaths ([6]; Gemfibrozil DDI arm (n = 20)): 0 n (%) | Any TEAE ([6]; Gemfibrozil DDI arm (n = 20), brigatinib 90 mg alone and with gemfibrozil): 9 (45) n (%) | AE leading to discontinuation ([6]; Gemfibrozil DDI arm (n = 20), emesis, treatment period 2): 1 n (%) | AE leading to discontinuation ([6]; Itraconazole DDI arm (n = 20)): 0 n (%) | Any serious TEAE ([6]; Itraconazole DDI arm (n = 20)): 0 n (%) | Any severe TEAE ([6]; Itraconazole DDI arm (n = 20)): 0 n (%) | On‐study deaths ([6]; Itraconazole DDI arm (n = 20)): 0 n (%) | Any serious TEAE ([6]; Rifampin DDI arm (n = 20)): 0 n (%) | Any severe TEAE ([6]; Rifampin DDI arm (n = 20)): 0 n (%) | On‐study deaths ([6]; Rifampin DDI arm (n = 20)): 0 n (%) | AE leading to discontinuation ([6]; Rifampin DDI arm (n = 20), elevated aspartate aminotransferase and alanine aminotransferase, treatment period 2): 1 n (%) | TEAE incidence: cough [6, 33]: 20% | TEAE incidence: throat irritation [6, 33]: 10% | TEAE incidence: cough ([6]; brigatinib coadministered with rifampin): 10% | hazard ratio, progression‐free survival ([7]; brigatinib versus crizotinib, P < .001): 0.49 [95%CI, 0.33‐0.74] | 12‐month progression‐free survival ([7]; phase 3 trial, crizotinib‐naive patients with ALK‐positive NSCLC): 67% | steady‐state apparent oral clearance (CL/F) ([8]; 180 mg once daily in patients with cancer): 12.7 L/h | single‐ and repeat‐dose systemic exposures versus dose ([8]; patients with cancer, dose range 60‐240 mg once daily): increased dose‐proportionally | decrease of peak concentration (Cmax) by a high‐fat meal ([9]; compared with fasted‐state administration): 13% | median time to Cmax (tmax) ([9]; fasted state): 2 h | median time to Cmax (tmax) ([9]; high‐fat meal): 5 h | effect of a high‐fat meal on total systemic exposure [9]: no impact | administered dose recovered in feces [1]: 65% | administered dose recovered in urine [1]: 25% | share of circulating radioactive components [1]: 92% | inhibition of CYP1A2 activity [10]: did not inhibit | inhibition of CYP2B6 activity [11]: did not inhibit | inhibition of CYP2C8 activity [12]: did not inhibit | inhibition of CYP2C9 activity [13]: did not inhibit | inhibition of CYP2C19 activity [14]: did not inhibit | inhibition of CYP2D6 activity [15]: did not inhibit | inhibition of CYP3A4/5 activity [16]: did not inhibit | induction of CYP3A expression [17]: induced CYP3A expression
